Among the data in patent EP0878194A1, “REMEDIES OR PREVENTIVES FOR AIDS” (SANKYO COMPANY LIMITED, priority 1996, dated 1997) are IC50 values, retold here.

The subject of experiment [1] is HIV-1IIIB strain. The experiment can be described thus: In vitro combined test: survival of HIV-1IIIB-infected MT4 cells (MTT), isobologram and combination index. The class given is cell-based.
For experiment [2], the system named is HIV-1IIIB strain. Described as above. It is filed as cell-based. The note with it: read-out: IC50 of Preparation example 117. As for the experimental part: Human T cell transformed cell line MT4 cells were cultured in RPMI 1640 medium containing 10% fetal bovine serum. HIV-1IIIB strain was obtained from HIV-1IIIB chronically infected Molt-4 cells as a supernatant fluid and used as the source of infectious viruses. The 50% tissue culture infectious dose (TCID50) of this fluid was determined by the endpoint titration methods.
The compound of Preparation example 117 was added in a serial dilution in the vertical direction to six 96-well microtiter plates. As a result of adding ZDV (Sigma) in a serial dilution in the horizontal direction, diluted solutions containing mixtures of various concentrations were prepared in 96-well microtiter plates (n=4).
MT4 cells were exposed to HIV-1IIIB fluid at a multiplicity of infection (m.o.i) 0.001 TCID50/ml at 37°C for 1 hour, then the cells were washed twice with PBS, and aliquots (5 x 10^4 cells/well) were placed in the plates containing various concentration of agent prepared as described above. After incubation for 6 days, the survival rate of infected MT4 cells was determined by the cell survival test using MTT (Sigma). Incidentally, in this test, the absorbance at O.D. 540 nm was measured by a plate reader, and the survival rate was determined by drawing a cell survival curve.
Analysis was performed according to the method of Barenbaum using an isobologram and combination index (CI) (Barenbaum, M.C., Pharmacol. Rev., 41, 93-141, 1989). In this case, the CI value was calculated by the general isobole equation. Determination of synergy, addition and […] was performed by isobologram curve patterns and/or statistical comparison of experimental CI values with CI values in typical additive effects (CI values when identical compounds are used in combination (0.85±0.11, Taylor, D.L. et al., Antiviral Chem. Chemother., 6, 143-152, 1995)).

Like-named read-outs stand apart in the source and are kept apart here.

For the molecule `OC[C@@H]1CC[C@H](n2cnc3c(O)ncnc32)O1` [DDI, 2',3'-dideoxyinosine, reference compound], the IC50 in the experiment with HIV-1IIIB strain [1] (Human immunodeficiency virus 1, MT4, alone (Preparation example 117 0), Table 34 experiment, read-out: IC50 of DDI) was found to be 5.4 µM; with HIV-1IIIB strain [1] (Human immunodeficiency virus 1, MT4, with Preparation example 117 0.39 ng/ml, read-out: IC50 of DDI), 4.27 µM; with HIV-1IIIB strain [1] (Human immunodeficiency virus 1, MT4, with Preparation example 117 0.78 ng/ml, read-out: IC50 of DDI), 4.38 µM; with HIV-1IIIB strain [1] (Human immunodeficiency virus 1, MT4, with Preparation example 117 1.56 ng/ml, read-out: IC50 of DDI), 3.65 µM; in the experiment with HIV-1IIIB strain [1] (Human immunodeficiency virus 1, MT4, with Preparation example 117 3.13 ng/ml, read-out: IC50 of DDI), 2.8 µM; in the experiment with HIV-1IIIB strain [1] (Human immunodeficiency virus 1, MT4, with Preparation example 117 3.85 ng/ml, read-out: IC50 of DDI), 2.5 µM. For the same molecule, the IC50 stood at 1.67 µM in the experiment on HIV-1IIIB strain [1] (Human immunodeficiency virus 1, MT4, with Preparation example 117 6.25 ng/ml, read-out: IC50 of DDI); 1.25 µM in the experiment on HIV-1IIIB strain [1] (Human immunodeficiency virus 1, MT4, with Preparation example 117 7.70 ng/ml, read-out: IC50 of DDI); 0.63 µM in the experiment on HIV-1IIIB strain [1] (Human immunodeficiency virus 1, MT4, with Preparation example 117 10.0 ng/ml, read-out: IC50 of DDI); 0.313 µM in the experiment with HIV-1IIIB strain [1] (Human immunodeficiency virus 1, MT4, with Preparation example 117 10.5 ng/ml, read-out: IC50 of DDI); 0.156 µM with HIV-1IIIB strain [1] (Human immunodeficiency virus 1, MT4, with Preparation example 117 11.0 ng/ml, read-out: IC50 of DDI).
`Cn1cc(C(=O)O)c(=O)c2cc(F)c(N3CCN(c4ncccn4)CC3)c(C(F)(F)F)c21` [Preparation example 117, 6-fluoro-8-trifluoromethyl-1,4-dihydro-4-oxo-1-methyl-7-[4-(2-pyrimidinyl)piperazin-1-yl]quinoline-3-carboxylic acid]: the IC50 with HIV-1IIIB strain [2] (Human immunodeficiency virus 1, MT4, with ZDV 1.56 ng/ml) came out at 0.0241 µg/mL; in the experiment with HIV-1IIIB strain [2] (Human immunodeficiency virus 1, MT4, with ZDV 6.25 ng/ml) it was 0.0111 µg/mL; in the experiment with HIV-1IIIB strain [2] (Human immunodeficiency virus 1, MT4, with ZDV 11.6 ng/ml) it was 0.00625 µg/mL; in the experiment on HIV-1IIIB strain [2] (Human immunodeficiency virus 1, MT4, with ZDV 13.9 ng/ml), 0.00313 µg/mL; in the experiment on HIV-1IIIB strain [1] (Human immunodeficiency virus 1, MT4, alone (3TC 0), Table 33 experiment, read-out: IC50 of Preparation example 117), 0.016 µg/mL; in the experiment on HIV-1IIIB strain [1] (Human immunodeficiency virus 1, MT4, alone (DDI 0), Table 34 experiment, read-out: IC50 of Preparation example 117), 0.014 µg/mL. The IC50 is 0.039 µg/mL in the experiment with HIV-1IIIB strain [1] (Human immunodeficiency virus 1, MT4, alone (ZDV 0), Table 32 experiment, read-out: IC50 of Preparation example 117); 0.013 µg/mL with HIV-1IIIB strain [1] (Human immunodeficiency virus 1, MT4, with 3TC 0.0156 µg/ml, read-out: IC50 of Preparation example 117); 0.0127 µg/mL in the experiment with HIV-1IIIB strain [1] (Human immunodeficiency virus 1, MT4, with 3TC 0.0313 µg/ml, read-out: IC50 of Preparation example 117); 0.0124 µg/mL in the experiment on HIV-1IIIB strain [1] (Human immunodeficiency virus 1, MT4, with 3TC 0.063 µg/ml, read-out: IC50 of Preparation example 117); 0.008 µg/mL in the experiment on HIV-1IIIB strain [1] (Human immunodeficiency virus 1, MT4, with 3TC 0.125 µg/ml, read-out: IC50 of Preparation example 117); 0.00625 µg/mL with HIV-1IIIB strain [1] (Human immunodeficiency virus 1, MT4, with 3TC 0.19 µg/ml, read-out: IC50 of Preparation example 117). The IC50 in the experiment on HIV-1IIIB strain [1] (Human immunodeficiency virus 1, MT4, with 3TC 0.25 µg/ml, read-out: IC50 of Preparation example 117) amounted to 0.00457 µg/mL; in the experiment with HIV-1IIIB strain [1] (Human immunodeficiency virus 1, MT4, with 3TC 0.34 µg/ml, read-out: IC50 of Preparation example 117), 0.00313 µg/mL; in the experiment on HIV-1IIIB strain [1] (Human immunodeficiency virus 1, MT4, with 3TC 0.43 µg/ml, read-out: IC50 of Preparation example 117), 0.00156 µg/mL; in the experiment with HIV-1IIIB strain [1] (Human immunodeficiency virus 1, MT4, with 3TC 0.50 µg/ml (Table 33, first line with 0.50), read-out: IC50 of Preparation example 117) it was 0.00096 µg/mL; in the experiment with HIV-1IIIB strain [1] (Human immunodeficiency virus 1, MT4, with 3TC 0.50 µg/ml (Table 33, second line with 0.50), read-out: IC50 of Preparation example 117), 0.00038 µg/mL; in the experiment on HIV-1IIIB strain [1] (Human immunodeficiency virus 1, MT4, with 3TC 0.52 µg/ml, read-out: IC50 of Preparation example 117), 0.00078 µg/mL. Besides, the IC50 in the experiment on HIV-1IIIB strain [1] (Human immunodeficiency virus 1, MT4, with DDI 0.156 µM, read-out: IC50 of Preparation example 117) stood at 0.011 µg/mL; with HIV-1IIIB strain [1] (Human immunodeficiency virus 1, MT4, with DDI 0.313 µM, read-out: IC50 of Preparation example 117), 0.0105 µg/mL; in the experiment on HIV-1IIIB strain [1] (Human immunodeficiency virus 1, MT4, with DDI 0.63 µM, read-out: IC50 of Preparation example 117), 0.01 µg/mL; with HIV-1IIIB strain [1] (Human immunodeficiency virus 1, MT4, with DDI 1.25 µM, read-out: IC50 of Preparation example 117), 0.0077 µg/mL; in the experiment on HIV-1IIIB strain [1] (Human immunodeficiency virus 1, MT4, with DDI 1.67 µM, read-out: IC50 of Preparation example 117), 0.00625 µg/mL; in the experiment with HIV-1IIIB strain [1] (Human immunodeficiency virus 1, MT4, with DDI 2.50 µM, read-out: IC50 of Preparation example 117) it was 0.00385 µg/mL. In addition, the IC50 with HIV-1IIIB strain [1] (Human immunodeficiency virus 1, MT4, with DDI 2.80 µM, read-out: IC50 of Preparation example 117) was found to be 0.00313 µg/mL; in the experiment with HIV-1IIIB strain [1] (Human immunodeficiency virus 1, MT4, with DDI 3.65 µM, read-out: IC50 of Preparation example 117), 0.00156 µg/mL; in the experiment on HIV-1IIIB strain [1] (Human immunodeficiency virus 1, MT4, with DDI 4.27 µM, read-out: IC50 of Preparation example 117) it was 0.00039 µg/mL; in the experiment with HIV-1IIIB strain [1] (Human immunodeficiency virus 1, MT4, with DDI 4.38 µM, read-out: IC50 of Preparation example 117) it was 0.00078 µg/mL; with HIV-1IIIB strain [1] (Human immunodeficiency virus 1, MT4, with ZDV 0.78 ng/ml, read-out: IC50 of Preparation example 117) it was 0.028 µg/mL; in the experiment with HIV-1IIIB strain [1] (Human immunodeficiency virus 1, MT4, with ZDV 1.20 ng/ml, read-out: IC50 of Preparation example 117), 0.025 µg/mL. Besides, the IC50 in the experiment with HIV-1IIIB strain [1] (Human immunodeficiency virus 1, MT4, with ZDV 3.13 ng/ml, read-out: IC50 of Preparation example 117) is 0.0162 µg/mL; with HIV-1IIIB strain [1] (Human immunodeficiency virus 1, MT4, with ZDV 5.60 ng/ml, read-out: IC50 of Preparation example 117), 0.0125 µg/mL; with HIV-1IIIB strain [1] (Human immunodeficiency virus 1, MT4, with ZDV 12.5 ng/ml, read-out: IC50 of Preparation example 117), 0.0053 µg/mL; in the experiment on HIV-1IIIB strain [1] (Human immunodeficiency virus 1, MT4, with ZDV 14.5 ng/ml, read-out: IC50 of Preparation example 117), 0.00156 µg/mL.
For the molecule `Nc1ccn([C@@H]2CS[C@H](CO)O2)c(=O)n1` [3TC, 4-amino-1-(2-hydroxymethyl-1,3-oxathioran-5-yl)-(1H)-pyrimidin-2-one, reference compound], the IC50 with HIV-1IIIB strain [1] (Human immunodeficiency virus 1, MT4, alone (Preparation example 117 0), Table 33 experiment, read-out: IC50 of 3TC) was determined as 0.6 µg/mL; with HIV-1IIIB strain [1] (Human immunodeficiency virus 1, MT4, with Preparation example 117 0.38 ng/ml, read-out: IC50 of 3TC), 0.5 µg/mL; with HIV-1IIIB strain [1] (Human immunodeficiency virus 1, MT4, with Preparation example 117 0.78 ng/ml, read-out: IC50 of 3TC), 0.52 µg/mL; in the experiment on HIV-1IIIB strain [1] (Human immunodeficiency virus 1, MT4, with Preparation example 117 0.96 ng/ml, read-out: IC50 of 3TC) it was 0.5 µg/mL; with HIV-1IIIB strain [1] (Human immunodeficiency virus 1, MT4, with Preparation example 117 1.56 ng/ml, read-out: IC50 of 3TC), 0.43 µg/mL; with HIV-1IIIB strain [1] (Human immunodeficiency virus 1, MT4, with Preparation example 117 3.13 ng/ml, read-out: IC50 of 3TC), 0.34 µg/mL. Further, the IC50 in the experiment on HIV-1IIIB strain [1] (Human immunodeficiency virus 1, MT4, with Preparation example 117 4.57 ng/ml, read-out: IC50 of 3TC) was found to be 0.25 µg/mL; with HIV-1IIIB strain [1] (Human immunodeficiency virus 1, MT4, with Preparation example 117 6.25 ng/ml, read-out: IC50 of 3TC) it was 0.19 µg/mL; with HIV-1IIIB strain [1] (Human immunodeficiency virus 1, MT4, with Preparation example 117 8.0 ng/ml, read-out: IC50 of 3TC), 0.125 µg/mL; in the experiment on HIV-1IIIB strain [1] (Human immunodeficiency virus 1, MT4, with Preparation example 117 12.4 ng/ml, read-out: IC50 of 3TC), 0.063 µg/mL; in the experiment with HIV-1IIIB strain [1] (Human immunodeficiency virus 1, MT4, with Preparation example 117 12.7 ng/ml, read-out: IC50 of 3TC), 0.0313 µg/mL; in the experiment with HIV-1IIIB strain [1] (Human immunodeficiency virus 1, MT4, with Preparation example 117 13.0 ng/ml, read-out: IC50 of 3TC) it was 0.0156 µg/mL.
